Measurements published in paper PMC11571215, “Optimization of Antiproliferative Properties of Triimine Copper(II) Complexes” (Journal of Medicinal Chemistry, 2024).

Legend:
HCT116-DoxR cells = assay: Cell cycle progression analysis (PI, flow cytometry); assay type: cell-based, human; details: complexes at IC50, Dox 6 μM, Cis 5 μM; 9, 12, 18, 24 h after double thymidine block
Text: It is important to note that exposure to increased levels of ROS can trigger genotoxic stress, an effect often associated with chemotherapy and that may promote cell cycle arrest.[84] The cell cycle comprises a sequential set of cellular events such as checkpoints that regulate transitions between different phases when cells are under stress conditions. Indeed, if DNA damage occurs, interphase checkpoints can trigger cell cycle arrest, repair, and induction of apoptosis or senescence.[85] Indeed, data in Table 7 show some degree of accumulation of both complexes in the nucleus, which may expose the genomic DNA to their action. […] This DNA intercalating fluorophore allows the analysis of DNA content in various phases of the cell cycle (G0/G1, S, and G2/M) (the fluorescence intensity emitted by PI doubles with the duplication of DNA quantity in the G1 and G2 phases),[86] and its detection can be performed by flow cytometry. […] To ensure that all cells were in the same phase of the cell cycle (S phase) when exposed to the Cu(II) complexes and controls, a double thymidine block was applied.[83]
HCT116-DoxR cells were cultured in six-well plates at a density of 1 × 10^5 cells/mL and incubated at 37 °C, 5% (v/v) CO2, and 99% (v/v) relative humidity for 8 h. To ensure that cells were in the same phase of the cell cycle, they were subjected to a double thymidine block for synchronization. At the end of the incubation, the culture medium was replaced with 2 mM thymidine in complete medium, and cells were incubated for 16 h. After incubation, the thymidine-containing medium was replaced with a thymidine-free complete medium, and cells were incubated for an additional 8 h. After this time, a second thymidine block was applied, as described earlier. At the end of the incubation, the thymidine-containing medium was replaced with a fresh medium containing the cooper complexes at their IC50 concentration. A 0.1% (v/v) DMSO solution was used as vehicle control, while 6 μM Dox, and 5 μM Cis were used as positive controls. Cells were incubated again for 9, 12, 18, and 24 h. Immediately after exposure (0 h) and at the end of each incubation period, the medium was removed, cells detached with TrypLE Express, and centrifuged for 5 min at 650 × g, at 4 °C. The pellet was resuspended in cold PBS 1× and centrifuged at 3000 × g for 5 min, at 4 °C. Later, the pellet was resuspended in cold PBS 1×, and 1 mL of 80% (v/v) cold ethanol was added dropwise to each tube. […] The DNA content was evaluated on an Attune acoustic focusing flow cytometer (Life Technologies, Carlsbad, USA), and the results were analyzed by the respective software (Attune Cytometric software).

calf-thymus DNA (ctDNA) = assay: UV-vis absorption titration with ctDNA; assay type: binding; details: hyperchromic effect at ∼350 nm
Procedure: For both Cu(II) complexes, the addition of DNA results in a gradual increase in the absorption intensity of the band at ∼350 nm, while the band position remains the same (Figure 14).
These values fall in the range reported previously for related Cu(II) complex with 4′-((naphthalen-2-yl)methoxy)-2,2′:6′,2″-terpyridine[21] that was proposed as an “outside binder”.
Absorption titration experiments were conducted by maintaining the complex concentration constant (25 μM) and varying the concentration of ctDNA (0–100 μM). Blank ctDNA samples were used as a reference.

HCT116-DoxR 3D spheroids = assay: CellTox Green cytotoxicity assay in 3D spheroids; assay type: cell-based, human; details: 4.8 μM Cu1a or 5.8 μM Cu1b; 3, 24, 48, 72 h
Procedure: Moreover, over time a detachment of death cells from the spheroids is observed (with green cells in the periphery of the outer region of the spheroids more clearly visualized at 72 h of exposure; Figure 5B and Supplementary Figure S16B,C).
HCT116-DoxR cells were seeded at 5 × 10^4 cells/mL in super low Attachment 96-well plates (NunclonSphera U-Shaped-Bottom Microplate, Thermo Fisher Scientific, Waltham, MA, USA) and incubated at 37 °C in a humidified atmosphere with 5% (v/v) CO2, to allow spheroids formation and growth.[60],[105] To perform the cell viability study, two methods were used: the MTS assay and the CellTox assay.
For the CellTox assay, HCT116DoxR spheroids grown for 6 to 9 days were used. […] CellTox Green dye is an asymmetric cyanine dye that enters cells with compromised membrane integrity and binds to DNA, which enhances its fluorescence. […] Therefore, higher levels of fluorescence are associated with a higher number of death cells.[106] […] After 3, 24, 48, and 72 h of incubation, fluorescence images were acquired with Ti–U Eclipse inverted microscope (Nikon), with a FITC filter (excitation at 465–495 nm, in the blue region, and emission at 515–555 nm, in the green region).
The software ImageJ was used for fluorescence quantification in which the Corrected Total Cell Fluorescence (CTCF, eq 6) was determined. […]

SMILES	effect on cell cycle progression (HCT116-DoxR cells)	mode of interaction with DNA (calf-thymus DNA (ctDNA))	cell death in spheroids (CellTox Green fluorescence) (HCT116-DoxR 3D spheroids)
N.N.[Cl][Pt][Cl] [Cisplatin]	has a cytostatic effect in G2/M after incubation for 24 h	–	–
[Cl][Cu-3]12([Cl])[n+]3ccccc3-c3cc(-c4cccc5ccccc45)cc([n+]31)-c1cccc[n+]12 [Cu1a]	a delay in the cell cycle at the S phase after 9 h, in the G2/M after 12 h of incubation, and a delay in the cell cycle at G0/G1 at 18 h	nonintercalative interactions with DNA, most likely via groove binding	the increase of cell death
[Cl][Cu-3]12([Cl])[n+]3ccccc3-c3cc(-c4ccc5ccccc5c4)cc([n+]31)-c1cccc[n+]12 [Cu1b]	a delay in the cell cycle at the S phase after 9 h, in the G2/M after 12 h of incubation, and a delay in the cell cycle at G0/G1 at 18 h	nonintercalative interactions with DNA, most likely via groove binding	the increase of cell death
COc1cccc2c1C(=O)c1c(O)c3c(c(O)c1C2=O)C[C@@](O)(C(=O)CO)C[C@@H]3O[C@H]1C[C@H](N)[C@H](O)[C@H](C)O1 [Doxorubicin]	did not affect the cell cycle progression or cause an arrest	–	–
